Source: patent US20230302013A1, “METHOD OF TREATING VIRAL-INDUCED COGNITIVE D[…] TARGETING LEAKY RyR2 CHANNELS” (The Trustees of Columbia University in the City of New York, priority 2022, published 2023)
“Also recorded” adds a separate entry of the source.

How the values were obtained:
RyR2 [1] = biological target: T1, RyR2 (Homo sapiens, UniProt Q92736); assay type: biochemical; details: COVID-19 patient brain tissue lysates (Ctx, CB) treated ex vivo with 10 μM compound at 4° C.; FIGS. 3A and B; p<0.05 vs untreated COVID-19
T1 construct: RyR2 was immunoprecipitated from 1.5 mg of tissue lysate using an anti-RyR2 specific antibody; from tissue; host or cells: brain tissue (cortex, cerebellum) of COVID-19 patients and controls
T1 sequence (Q92736 whole entry): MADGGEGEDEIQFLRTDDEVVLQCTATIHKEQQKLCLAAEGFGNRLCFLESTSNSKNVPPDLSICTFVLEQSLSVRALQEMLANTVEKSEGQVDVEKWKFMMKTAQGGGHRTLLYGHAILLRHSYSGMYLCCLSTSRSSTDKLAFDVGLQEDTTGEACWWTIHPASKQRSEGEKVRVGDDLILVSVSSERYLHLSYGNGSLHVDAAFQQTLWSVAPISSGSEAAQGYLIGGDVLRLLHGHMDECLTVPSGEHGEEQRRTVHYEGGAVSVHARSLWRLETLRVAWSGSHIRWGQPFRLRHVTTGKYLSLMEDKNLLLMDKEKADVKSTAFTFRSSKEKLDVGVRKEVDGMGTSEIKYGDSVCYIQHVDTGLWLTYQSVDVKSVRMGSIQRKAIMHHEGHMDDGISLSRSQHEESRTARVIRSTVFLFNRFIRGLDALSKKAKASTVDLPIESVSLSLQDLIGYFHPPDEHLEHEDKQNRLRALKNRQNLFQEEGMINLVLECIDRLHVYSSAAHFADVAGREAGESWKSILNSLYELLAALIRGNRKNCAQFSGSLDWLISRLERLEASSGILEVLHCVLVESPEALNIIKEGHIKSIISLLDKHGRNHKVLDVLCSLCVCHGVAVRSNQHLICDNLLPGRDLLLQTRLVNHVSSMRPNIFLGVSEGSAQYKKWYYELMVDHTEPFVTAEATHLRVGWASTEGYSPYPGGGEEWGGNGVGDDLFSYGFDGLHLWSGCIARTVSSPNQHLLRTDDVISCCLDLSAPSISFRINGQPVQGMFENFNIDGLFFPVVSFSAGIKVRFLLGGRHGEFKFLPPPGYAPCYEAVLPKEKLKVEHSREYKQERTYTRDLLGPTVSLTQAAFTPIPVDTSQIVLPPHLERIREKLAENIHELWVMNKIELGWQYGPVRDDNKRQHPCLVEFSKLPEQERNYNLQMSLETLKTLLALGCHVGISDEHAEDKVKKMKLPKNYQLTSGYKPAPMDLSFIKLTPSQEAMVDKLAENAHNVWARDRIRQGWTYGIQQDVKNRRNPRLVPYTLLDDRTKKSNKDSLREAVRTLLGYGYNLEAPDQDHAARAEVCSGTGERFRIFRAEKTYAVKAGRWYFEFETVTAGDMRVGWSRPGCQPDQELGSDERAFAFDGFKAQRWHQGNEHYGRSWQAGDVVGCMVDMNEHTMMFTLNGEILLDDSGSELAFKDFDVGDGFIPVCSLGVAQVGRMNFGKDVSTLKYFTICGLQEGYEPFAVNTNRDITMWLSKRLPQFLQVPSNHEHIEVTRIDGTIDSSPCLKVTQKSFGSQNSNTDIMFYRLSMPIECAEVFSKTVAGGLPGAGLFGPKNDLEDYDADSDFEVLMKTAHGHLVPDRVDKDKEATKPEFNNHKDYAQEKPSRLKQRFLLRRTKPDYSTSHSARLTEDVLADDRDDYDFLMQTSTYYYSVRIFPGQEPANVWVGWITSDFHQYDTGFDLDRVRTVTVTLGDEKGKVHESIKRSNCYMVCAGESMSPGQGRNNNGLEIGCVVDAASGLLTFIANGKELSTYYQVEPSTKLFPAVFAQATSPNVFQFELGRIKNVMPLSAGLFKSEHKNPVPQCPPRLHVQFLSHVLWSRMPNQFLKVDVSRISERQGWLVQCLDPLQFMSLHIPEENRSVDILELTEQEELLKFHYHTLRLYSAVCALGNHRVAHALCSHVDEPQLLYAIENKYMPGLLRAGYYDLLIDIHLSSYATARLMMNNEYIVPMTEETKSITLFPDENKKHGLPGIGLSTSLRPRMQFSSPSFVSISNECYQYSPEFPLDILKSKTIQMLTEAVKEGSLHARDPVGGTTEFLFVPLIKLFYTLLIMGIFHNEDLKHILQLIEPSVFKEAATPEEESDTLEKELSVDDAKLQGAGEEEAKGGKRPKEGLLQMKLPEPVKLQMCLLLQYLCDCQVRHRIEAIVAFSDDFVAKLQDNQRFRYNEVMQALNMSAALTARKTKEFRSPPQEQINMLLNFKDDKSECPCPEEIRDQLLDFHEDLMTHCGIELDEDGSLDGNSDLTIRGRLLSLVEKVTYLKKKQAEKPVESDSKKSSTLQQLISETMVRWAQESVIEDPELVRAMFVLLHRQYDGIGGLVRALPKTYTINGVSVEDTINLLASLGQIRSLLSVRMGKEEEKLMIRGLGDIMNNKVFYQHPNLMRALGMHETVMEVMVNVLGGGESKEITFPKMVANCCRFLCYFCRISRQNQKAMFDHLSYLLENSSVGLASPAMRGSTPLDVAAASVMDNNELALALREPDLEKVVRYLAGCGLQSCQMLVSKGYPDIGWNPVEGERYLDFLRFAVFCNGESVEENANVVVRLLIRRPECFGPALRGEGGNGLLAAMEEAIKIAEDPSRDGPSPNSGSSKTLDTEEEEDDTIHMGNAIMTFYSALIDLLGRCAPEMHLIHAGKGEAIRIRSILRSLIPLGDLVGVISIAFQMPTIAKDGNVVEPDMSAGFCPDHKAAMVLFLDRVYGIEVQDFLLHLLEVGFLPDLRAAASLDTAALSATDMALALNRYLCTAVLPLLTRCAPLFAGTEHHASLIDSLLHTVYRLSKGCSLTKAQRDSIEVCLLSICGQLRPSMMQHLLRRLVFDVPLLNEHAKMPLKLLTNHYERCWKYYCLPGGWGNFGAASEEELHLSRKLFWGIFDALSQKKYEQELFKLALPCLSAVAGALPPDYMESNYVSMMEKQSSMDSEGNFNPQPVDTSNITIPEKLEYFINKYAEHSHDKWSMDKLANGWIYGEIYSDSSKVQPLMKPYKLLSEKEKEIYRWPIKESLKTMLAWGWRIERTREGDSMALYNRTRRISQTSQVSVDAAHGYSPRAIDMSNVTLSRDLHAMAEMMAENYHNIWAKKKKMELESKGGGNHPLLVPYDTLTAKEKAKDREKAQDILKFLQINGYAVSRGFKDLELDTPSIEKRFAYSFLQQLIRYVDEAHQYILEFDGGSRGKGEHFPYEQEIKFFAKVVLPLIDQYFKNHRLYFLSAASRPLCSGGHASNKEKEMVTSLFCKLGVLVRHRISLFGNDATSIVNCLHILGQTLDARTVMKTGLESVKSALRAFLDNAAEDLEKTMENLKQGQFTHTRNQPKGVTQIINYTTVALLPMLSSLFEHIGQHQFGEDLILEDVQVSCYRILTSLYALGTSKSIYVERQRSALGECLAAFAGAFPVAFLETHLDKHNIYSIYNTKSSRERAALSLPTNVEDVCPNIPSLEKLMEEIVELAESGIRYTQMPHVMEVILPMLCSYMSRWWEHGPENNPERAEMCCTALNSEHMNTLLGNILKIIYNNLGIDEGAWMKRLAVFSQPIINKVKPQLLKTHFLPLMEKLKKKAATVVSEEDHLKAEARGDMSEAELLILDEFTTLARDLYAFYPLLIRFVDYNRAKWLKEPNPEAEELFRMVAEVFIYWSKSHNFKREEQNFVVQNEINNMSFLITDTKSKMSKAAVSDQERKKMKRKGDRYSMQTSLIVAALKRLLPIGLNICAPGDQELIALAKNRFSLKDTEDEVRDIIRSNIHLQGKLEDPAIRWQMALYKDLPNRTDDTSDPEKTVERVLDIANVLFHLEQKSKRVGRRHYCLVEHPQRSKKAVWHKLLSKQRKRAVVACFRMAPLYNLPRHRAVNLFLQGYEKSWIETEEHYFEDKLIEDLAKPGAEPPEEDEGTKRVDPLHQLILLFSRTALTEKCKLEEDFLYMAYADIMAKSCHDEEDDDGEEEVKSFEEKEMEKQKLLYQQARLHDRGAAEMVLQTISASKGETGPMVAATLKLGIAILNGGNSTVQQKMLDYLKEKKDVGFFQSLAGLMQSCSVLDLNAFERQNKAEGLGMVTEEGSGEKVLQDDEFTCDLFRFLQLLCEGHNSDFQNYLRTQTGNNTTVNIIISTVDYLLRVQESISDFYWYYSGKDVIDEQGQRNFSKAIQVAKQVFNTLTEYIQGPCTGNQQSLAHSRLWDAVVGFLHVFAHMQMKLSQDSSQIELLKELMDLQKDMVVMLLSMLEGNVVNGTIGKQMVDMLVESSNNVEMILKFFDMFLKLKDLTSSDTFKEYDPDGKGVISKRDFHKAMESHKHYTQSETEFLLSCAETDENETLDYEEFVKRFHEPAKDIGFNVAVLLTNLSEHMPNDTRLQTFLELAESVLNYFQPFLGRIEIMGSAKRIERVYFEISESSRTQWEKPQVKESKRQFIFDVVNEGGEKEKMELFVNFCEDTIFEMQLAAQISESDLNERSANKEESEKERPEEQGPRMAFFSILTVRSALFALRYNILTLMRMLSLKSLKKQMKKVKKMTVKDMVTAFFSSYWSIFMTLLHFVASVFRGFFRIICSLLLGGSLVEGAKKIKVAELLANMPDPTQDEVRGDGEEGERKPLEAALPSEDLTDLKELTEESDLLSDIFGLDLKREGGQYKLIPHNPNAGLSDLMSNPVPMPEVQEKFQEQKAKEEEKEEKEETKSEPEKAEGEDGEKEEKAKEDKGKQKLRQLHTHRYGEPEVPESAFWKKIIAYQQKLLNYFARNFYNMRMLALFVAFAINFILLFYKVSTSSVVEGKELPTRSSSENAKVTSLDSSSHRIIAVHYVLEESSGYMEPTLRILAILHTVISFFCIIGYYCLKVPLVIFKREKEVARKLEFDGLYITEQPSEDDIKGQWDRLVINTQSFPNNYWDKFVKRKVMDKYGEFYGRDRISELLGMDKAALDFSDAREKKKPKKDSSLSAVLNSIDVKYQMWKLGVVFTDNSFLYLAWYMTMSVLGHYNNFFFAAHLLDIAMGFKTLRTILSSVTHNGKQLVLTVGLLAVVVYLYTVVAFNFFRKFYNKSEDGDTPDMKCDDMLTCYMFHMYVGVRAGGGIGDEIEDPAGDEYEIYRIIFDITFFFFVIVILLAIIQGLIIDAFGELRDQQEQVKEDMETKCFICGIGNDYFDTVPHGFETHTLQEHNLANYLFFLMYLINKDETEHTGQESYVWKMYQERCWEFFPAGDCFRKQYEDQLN
T1 sequence (P68106 whole entry partner): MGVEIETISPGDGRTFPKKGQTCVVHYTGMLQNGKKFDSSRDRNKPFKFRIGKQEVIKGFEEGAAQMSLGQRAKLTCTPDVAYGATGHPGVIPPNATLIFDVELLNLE

RyR2 [2] = biological target: T1, RyR2; assay: [3H]ryanodine binding to immunoprecipitated RyR2 (surrogate of channel open probability / leak); assay type: biochemical
Procedure: RyR2 was immunoprecipitated from 1.5 mg of tissue lysate using an anti-RyR2 specific antibody (25 μg) in 1.0 ml of a modified RIPA buffer overnight at 4° C. The immune complexes were incubated with protein A-Sepharose beads (Sigma) at 4° C. for 1 h, and the beads were washed three times with RIPA buffer, followed by 2 washes with ryanodine binding buffer (10 mM Tris-HCl, pH 6.8, 1 M NaCl, 1% CHAPS, 5 mg/ml phosphatidylcholine, and protease inhibitors). Immunoprecipitates were incubated in 0.2 ml of binding buffer containing 20 nM [^3H] ryanodine and either of 150 nM and 20 μm free Ca^2+ for 1 h at 37° C. Samples were diluted with 1 ml of ice-cold washing buffer (25 mm Hepes, pH 7.1, 0.25 m KCl) and filtered through Whatman GF/B membrane filters pre-soaked with 1% polyethyleneimine in washing buffer. Filters were washed three times with 5 ml of washing buffer. The radioactivity remaining on the filters is determined by liquid scintillation counting to obtain bound [^3H] ryanodine. Nonspecific binding was determined in the presence of 1000-fold excess of non-labeled ryanodine.

For `COc1ccc2c(c1)CN(Cc1ccc(C(=O)O)cc1)CCS2` [Compound 1], the “calstabin2 binding to RyR2” value (RyR2 [1]) was “increased”, the “abnormal RyR2 activity ([3H]ryanodine binding) at resting Ca2+ concentration” value (RyR2 [2]; RyR2 immunoprecipitated from COVID-19 brain lysates, 150 nM free Ca2+, as percent of maximum binding (20 μM Ca2+), FIG. 3C, p<0.05 vs untreated COVID-19) was “decreased” and the RyR2 channel leak (RyR2 [2]; ex vivo treatment of COVID-19 patient brain samples) was “corrected; also recorded: fixed the channel leak”.
